Measurements reported in article PMC10714399, “Open Source Antibiotics: Simple Diarylimidazoles Are Potent against Methicillin-Resistant Staphylococcus aureus” (ACS Infectious Diseases, 2023).
Converted amounts (≈) assume the structure as drawn. Read-outs that look alike come from different tables or passages of the source. Blank lines part the entries; values can stand above or below the molecule they belong to.

Tests used:
[1] = test system: Staphylococcus aureus NCTC 13373 (mecA-positive; methicillin-resistant); test: In vitro antibacterial activity, MIC (UCL School of Pharmacy assay), MRSA; type: cell-based; details: Staphylococcus aureus, UCL; read-out: MRSA MIC (UCL)
Method in brief: (§1)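 Broth microdilution MIC in isosensitest broth; inoculum from overnight tryptone soya agar culture suspended in PBS to A600 0.1 (~1 × 10^8 CFU/mL), then diluted 1:100. Compounds tested as 2-fold series from 32 to 0.03 μg/mL, DMSO at most 2%; vancomycin as quality control.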

[2] = Aqueous solubility; type: physicochemical; details: thermodynamic from solid; NEU; read-out: Aqueous Solubility (NEU)
[3] = test system: PMM (primary mouse macrophages); test: Toxicity against PMM; type: cell-based; details: PMM
Method: (§2) ADME and toxicity for compounds were measured according to procedures outlined in the manuscript submitted in parallel to this one;2 other procedures were used for those compounds analysed by Monash University (in vitro ADME) or UCL (toxicity), both described in the main

[4] = Human liver microsome intrinsic clearance; type: in vitro ADME; details: human liver microsomes, NEU; read-out: HLM CLint (NEU)
[5] = test system: THP1; test: Toxicity against THP1; type: cell-based; details: THP1 cells
From the text: Supplement id3c00286_si_002.xlsx, sheet "Series 2 Data" | column: THP1 TC50 (uM)

[6] = Human plasma protein binding (PPB); type: in vitro ADME; details: human plasma, NEU
[7] = test system: U2OS; test: Toxicity against U2OS; type: cell-based; details: U2OS cells
From the text: Supplement id3c00286_si_002.xlsx, sheet "Series 2 Data" | column: U2OS TC50 (uM)

[8] = test system: MRC-5SV2 (human lung fibroblast cell line); test: Toxicity against MRC-5SV2; type: cell-based; details: MRC5 cells
Method: as §2

[9] = Rat hepatocyte intrinsic clearance; type: in vitro ADME; details: rat hepatocytes, NEU; read-out: Rat Hep CLint (NEU)
[10] = test system: Enterococcus faecalis ATCC 51299 (vanA-positive; vancomycin-resistant); test: In vitro antibacterial activity, MIC (UCL), VRE; type: cell-based; details: read-out: VRE MIC (UCL)
Method in brief: as §1

[11] = Kinetic solubility estimation using nephelometry (Monash); type: physicochemical; details: for solubility kinetic at 30 min: kinetic from dmso stock
Method: Compound in DMSO was spiked into either pH 6.5 phosphate buffer or 0.01 M HCl (approximately pH 2.0) with the final DMSO concentration being 1%. […]
b) Kinetic Solubility Estimation using Nephelometry (SolpH)
Compound in DMSO was spiked into either pH 6.5 phosphate buffer or 0.01 M HCl (approx pH 2.0) with the final
DMSO concentration being 1%. After 30 minutes had elapsed, samples were then analysed via Nephelometry to
determine a solubility range. See Bevan and Lloyd (2000) Anal Chem, 72:1781-1787. […]
(§3) In Vitro Intrinsic Clearance […]
(§4) Experimental results are tabulated on the following page(s).
(§5) (1 picture or pasted object on this page, not shown here)

[12] = Mouse liver microsome (MLM) metabolic stability (UNC); type: in vitro ADME
From the text: Supplement id3c00286_si_002.xlsx, sheet "Series 2 Data" | column: MLM Clint (mL/min/kg) (UNC); MLM t1/2 (min) (UNC); MLM E (UNC)

[13] = In vitro metabolic stability, rat liver microsomes (Monash); type: in vitro ADME
Method: (§6) The metabolic stability assay was performed by incubating each test compound with a suspension of liver microsomes (0.4 mg/mL protein, 1 μM substrate, 37 °C). Microsomes were purchased from XenoTech. The metabolic reaction was initiated by the addition of an NADPH-regenerating system and quenched at various time points over a 60 min incubation by the addition of acetonitrile containing metolazone as an internal standard. Control samples (containing no NADPH) were included (quenched at 2, 30, and 60 min) to monitor for potential degradation in the absence of cofactor. […]
(§7) d) In Vitro Metabolic Stability
(§8) The metabolic stability assay was performed by incubating each test compound with a suspension of liver
(§9) microsomes (0.4 mg/mL, 37°C). The metabolic reaction was initiated by the addition of an NADPH-regenerating
(§10) system and quenched at various time points over a 60 minute incubation by the addition of acetonitrile containing
(§11) metolazone as internal standard. Control samples (containing no NADPH) were included (quenched at 2, 30 and 60
(§12) minutes) to monitor for potential degradation in the absence of cofactor.
(§13) The human liver microsomes used in this experiment were supplied by XenoTech, lot # 1710084.The rat liver
(§14) microsomes used in this experiment were supplied by XenoTech, lot # 1610290. Microsomal incubations were
(§15) performed at a substrate concentration of 1 µM.
(§16) Data analysis and interpretation:
(§17) Substrate depletion as a function of time was analysed as described by Obach (1999) Drug Metab. Dispos., 27:1350-
(§18) 1359. Intrinsic clearance (CLint) values were classified at the limits of low and high clearance bands based on a
(§19) rearrangement of the well stirred model of hepatic elimination. It should be noted that the potential impact of
(§20) compound binding (either in microsomes or in blood) on the relationship between in vitro intrinsic clearance and
(§21) hepatic clearance in vivo has not been accounted for in these studies.
(§22) In Vitro Intrinsic Clearance
(§23) Species (µL/min/mg protein)
(§24) Low Clearance High Clearance
as §4, §5

[14] = In vitro metabolic stability, human liver microsomes (Monash); type: in vitro ADME
Method: as §6, §7, §8, §9, §10, §11, §12, §13, §14, §15, §16, §17, §18, §19, §20, §21, §22, §23, §24, §4, §5

[15] = test system: Staphylococcus aureus ATCC 43300 MRSA; test: CO-ADD antibacterial assay (growth inhibition, MIC), MRSA; type: cell-based; details: read-out: MRSA MIC (CO-ADD)
Method: Hit Confirmation of active compounds by whole cell growth inhibition assays was conducted as an 8-point dose response to determine the Minimum Inhibitory Concentration (MIC), in duplicate (n=2). The inhibition of growth is measured against those microorganisms that […]
Included in the Hit Confirmation were 5 bacteria: Escherichia coli, Klebsiella pneumoniae, Acinetobacter baumannii, Pseudomonas aeruginosa and Staphylococcus aureus, and 2 fungi Candida albicans and Cryptococcus neoformans. […]
Assay Parameters Bacteria Fungi HEK293 Haemolysis […]
Duplicate (n=2) Duplicate (n=2) Duplicate (n=2) Duplicate (n=2)
QC Control MIC: Control MIC: Control CC50: Control HC10:
Non-Binding Non-Binding TC, 384-well Polypropylene
Plates Surface (NBS), Surface (NBS), black wall/clear 384-well and 384-well plate 384-well plate bottom polystyrene 384-
Cation-adjusted Yeast Nitrogen DMEM
Media Mueller Hinton Base supplemented 0.9% NaCl
Hit Confirmation outcomes are detailed in individual Project reports, personalised for each Project Submission for each CO-ADD user.
Please see your data sheet with file extension P0XXX_HC_data.xlsx, for example CO-ADD Project P0100, P0100_HC_data.xlsx
Study: HC_data ID: HC-Procedures & Materials
Date: Last updated June 2018 Confidential Page 3 of 11
as §5
Samples were provided by the collaborator and stored frozen at -20 °C. Samples were prepared in DMSO and water to a final testing concentration of 32 µg/mL or 20 µM (unless otherwise indicated in the data sheet) and serially diluted 1:2 fold for 8 times. Each sample concentration was prepared in 384-well plates, non-binding surface plate (NBS; Corning 3640) for each bacterial/fungal strain, tissue-culture treated (TC-treated; Corning 3712/3764) black for mammalian cell types and polypropylene 384-well (PP; Corning 3657) for haemolysis assays, all in duplicate (n=2), and keeping the final DMSO concentration to a maximum of 0.5%. All the sample preparation was done using liquid handling robots. […]
detailed in the Data sheet for the individual Project.
All bacteria were cultured in Cation-adjusted Mueller Hinton broth (CAMHB) at 37 °C overnight. A sample of each culture was then diluted 40-fold in fresh broth and incubated at 37 °C for 1.5-3 h. The resultant mid-log phase cultures were diluted (CFU/mL measured by OD600), then added to each well of the compound containing plates, giving a cell density of 5×10^5 CFU/mL and a total volume of 50 µL. All the plates were covered and incubated at 37 °C for 18 h without shaking.
Inhibition of bacterial growth was determined measuring absorbance at 600 nm (OD600), using a Tecan M1000 Pro monochromator plate reader. The percentage of growth inhibition was calculated for each well, using the negative control (media only) and positive control (bacteria without inhibitors) on the same plate as references.
The percentage of growth inhibition was calculated for each well, using the negative control (media only) and positive control (bacteria without inhibitors) on the same plate. The MIC […]
by an inhibition ≥ 80%. In addition, the maximal percentage of growth inhibition is reported as DMax, indicating any compounds with partial activity.
Date: Last updated June 2018 Confidential Page 5 of 11
Material Code Brand/Supplier Cat No.
Compound preparation plate, Polypropylene PP Corning 3364
Assay Plates – Antimicrobial
Non-binding surface NBS 384w Corning 3640
Assay Plates – Cytotoxicity
Tissue culture treated Black/Clear bottom 384w Corning 3712
Assay Plates - Haemolysis PP-Haem Corning 3657 […]
Growth media - bacteria CAMHB Bacto Laboratories 212322
Culture agar - fungi YPD Becton Dickinson 242720
Growth media - fungi YNB Becton Dickinson 233520
Resazurin Sigma-Aldrich R7017
Dulbecco's Modified Eagle Medium DMEM Life Technologies 11995-073
Foetal Bovine Serum FBS Bovogen FFBS-500
0.9% NaCl Saline Baxter AHF7124
Sample Name Sample ID MW Conc. Solvent Source […]

[16] = Distribution coefficient estimation using chromatography, gLogD (Monash); type: physicochemical
From the text: Partition coefficient values (LogD) of the test compounds were estimated at pH 7.4 by the correlation of their chromatographic retention properties against the characteristics of a series of standard compounds with known partition coefficient values. The method employed is a gradient HPLC-based derivation of the method developed by Lombardo.[42] […]
c) Distribution Coefficient Estimation using Chromatography (gLogDpH)
Partition coefficient values (LogD) of the test compounds were estimated at pH 7.4 by correlation of their
chromatographic retention properties against the characteristics of a series of standard compounds with known
partition coefficient values. […]
as §3, §4, §5

[17] = LogD7.4 (Chrom Log D); type: physicochemical; details: chromatographic system (Chrom Log D); pH 7.4, NEU; read-out: LogD 7.4 (NEU)

- MIC [1]: > 32 µg/mL
- solubility [2]: 22 µM (≈ 7.42 µg/mL)
- microsomal CLint [4]: < 3 µL/min/mg
- Human PPB (NEU) [6]: Low recovery,Unstable in plasma
- hepatocyte CLint [9]: 82.3 µL/min/1e6 cells
- MIC [10]: > 32 µg/mL
Compound: COc1ccn2c(Nc3ccccc3F)c(-c3cnn(C)c3)nc2c1 [OSA_000855]
- PMM TC50 [3]: 64 µM
- THP1 TC50 [5]: 50 µM
- U2OS TC50 [7]: 50 µM
- MRC5 TC50 [8]: 64 µM

- solubility kinetic at 30 min ([11]; 0.01 M HCl, simulated gastric fluid, pH 2.0, read-out: Sol (pH 2.0) (Monash)): 25 to 50 µg/mL (≈ 77.3 to 155 µM)
- solubility kinetic at 30 min ([11]; pH 6.5 phosphate buffer, pH 6.5, aqueous buffer, read-out: Sol (pH 6.5) (Monash)): 12.5 to 25 µg/mL (≈ 38.7 to 77.3 µM)
- MLM E (UNC) ([12]; mouse liver microsomes): 0.873
- CLint scaled ([12]; mouse, liver microsomes): 619 mL/min/kg
- half-life ([12]; mouse, liver microsomes, read-out: MLM t1/2 (UNC)): 9.08 min
- microsomal CLint at 1 µM ([13]; Monash, read-out: RLM Clint (Monash)): 74 µL/min/mg
- half-life at 1 µM ([13]; Monash, read-out: RLM t1/2 (Monash)): 23 min
- microsomal CLint at 1 µM ([14]; Monash, read-out: HLM Clint (Monash)): 37 µL/min/mg
- half-life at 1 µM ([14]; Monash, read-out: HLM t1/2 (Monash)): 47 min
- MIC [15]: 32 µg/mL (≈ 99 µM)
- chromatographic logD ([16]; gradient HPLC retention against standard compounds, pH 7.4): 1.6
Compound: c1ccc(-c2nc3n(c2-c2ccc4c(c2)OCO4)CCS3)nc1 [OSA_000813]

- MIC [1]: 8 µg/mL (≈ 26.5 µM)
- solubility [2]: 79 µM (≈ 23.8 µg/mL)
- microsomal CLint [4]: 224 µL/min/mg
- fraction unbound ([6]; human, plasma, read-out: Human PPB (NEU) (converted)): 0.028
- chromatographic logD [17]: 3.1
- hepatocyte CLint [9]: 23.9 µL/min/1e6 cells
- MIC [10]: 32 µg/mL (≈ 106 µM)
Compound: COc1ccn2c(-c3ccccc3)c(-c3ccccn3)nc2c1 [OSA_000860]
- PMM TC50 [3]: 8 µM
- THP1 TC50 [5]: 5.01 µM
- U2OS TC50 [7]: 0.73 µM
- MRC5 TC50 [8]: 3.92 µM

- Sol 2.0 ([11]; 0.01 M HCl, approx pH 2.0): > 100 µg/mL
- Sol 6.5 ([11]; pH 6.5 phosphate buffer): 25 to 50 µg/mL
- CLint, in vitro ([13]; NADPH): 99 µL/min/mg protein
- T1/2 ([13]; NADPH): 18 min
- CLint, in vitro ([14]; NADPH): 47 µL/min/mg protein
- T1/2 ([14]; NADPH): 37 min
- gLogD at pH 7.4 [16]: 1.8
Compound: c1ccc(-c2nc3ccccn3c2-c2ccc3c(c2)OCO3)nc1 [UNC-ALM-DAI-18]
